The source made the active and inactive calls. The calls are words filed in the database; no cut-off is given here.
Tests used:
Estrogen receptor [1] = biological target: T1, Estrogen receptor (Homo sapiens, UniProt P03372); assay: Agonist activity at human estrogen receptor-alpha by yeast two-hybrid assay in presence of SRC1
T1 sequence (P03372 whole entry): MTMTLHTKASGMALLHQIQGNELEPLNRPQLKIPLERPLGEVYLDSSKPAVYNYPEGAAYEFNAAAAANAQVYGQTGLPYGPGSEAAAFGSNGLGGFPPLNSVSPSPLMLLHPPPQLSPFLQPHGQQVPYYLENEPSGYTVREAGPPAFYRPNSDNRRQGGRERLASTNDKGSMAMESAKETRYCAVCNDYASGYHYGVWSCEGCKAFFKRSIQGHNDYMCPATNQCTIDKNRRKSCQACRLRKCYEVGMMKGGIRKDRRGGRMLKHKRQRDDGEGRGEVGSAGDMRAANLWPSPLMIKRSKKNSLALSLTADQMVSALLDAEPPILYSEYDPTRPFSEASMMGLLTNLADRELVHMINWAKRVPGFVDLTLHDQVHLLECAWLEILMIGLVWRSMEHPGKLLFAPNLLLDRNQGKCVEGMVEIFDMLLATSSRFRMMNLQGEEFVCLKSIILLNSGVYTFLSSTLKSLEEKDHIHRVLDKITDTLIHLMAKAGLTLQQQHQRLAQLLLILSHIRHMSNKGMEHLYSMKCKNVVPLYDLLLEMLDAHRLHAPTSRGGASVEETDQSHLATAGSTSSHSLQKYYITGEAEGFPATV

Estrogen receptor beta [2] = biological target: T2, Estrogen receptor beta (Homo sapiens, UniProt Q92731)
Description: Agonist activity at human estrogen receptor-beta by yeast two-hybrid assay in presence of SRC1

Estrogen receptor [3] = biological target: T1, Estrogen receptor; assay: Antagonist activity at human estrogen receptor-alpha by yeast two-hybrid assay in presence of SRC1
Estrogen receptor beta [4] = biological target: T2, Estrogen receptor beta; remark: listed apart in the source
Description: Antagonist activity at human estrogen receptor-beta by yeast two-hybrid assay in presence of SRC1

[5] = biological target: T3, Estrogen receptor (Homo sapiens) (UniProt P03372); assay: Antagonist activity at human estrogen receptor-alpha at 25 uM by yeast two-hybrid assay in presence of SRC1
T3 sequence (whole entry): T1 sequence (P03372 whole entry)

Homo sapiens = organism: Homo sapiens; assay: Selectivity ratio of EC50 for human estrogen receptor-alpha to EC50 for human estrogen receptor-beta

T2 sequence (Q92731 whole entry): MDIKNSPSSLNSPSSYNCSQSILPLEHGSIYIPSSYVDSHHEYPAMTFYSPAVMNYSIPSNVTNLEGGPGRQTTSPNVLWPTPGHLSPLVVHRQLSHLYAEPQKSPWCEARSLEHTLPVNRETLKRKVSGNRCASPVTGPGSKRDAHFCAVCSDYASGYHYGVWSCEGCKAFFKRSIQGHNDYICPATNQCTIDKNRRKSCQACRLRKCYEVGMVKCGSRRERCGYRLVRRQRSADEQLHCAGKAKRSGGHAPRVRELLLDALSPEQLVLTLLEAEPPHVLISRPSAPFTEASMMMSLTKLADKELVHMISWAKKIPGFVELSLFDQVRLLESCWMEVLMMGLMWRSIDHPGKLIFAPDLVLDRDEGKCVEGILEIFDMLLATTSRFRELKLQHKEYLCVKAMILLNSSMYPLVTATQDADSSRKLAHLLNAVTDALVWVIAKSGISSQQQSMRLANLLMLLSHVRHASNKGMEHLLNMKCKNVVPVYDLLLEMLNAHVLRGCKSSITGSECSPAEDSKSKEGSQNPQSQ

O=C(O)/C=C/c1ccc(O)cc1 [COUMARIC ACID]
EC50 (Estrogen receptor [1]): 16.1 µM
EC50 (Estrogen receptor beta [2]): 4.89 µM

C=CCc1ccc(OC)c(-c2cc(C=O)cc(O)c2O)c1
EC50 (Estrogen receptor [3]): 48.4 µM
EC50 (Estrogen receptor beta [4]): 49.2 µM

C=C(C)[C@@H]1[C@H](O)C[C@@H]2[C@]3(CC[C@]4(C)[C@@H]([C@H](C)CC/C=C(\C)C(=O)O)CC[C@@]24C)C[C@]13CCC(=O)O
EC50 (Estrogen receptor beta [4]): 33.8 µM
Activity [5]: inactive

C=C(C)[C@@H]1[C@@H]2O[C@@H]2[C@@H]2[C@]3(CC[C@]4(C)[C@@H]([C@H](C)CC/C=C(\C)C(=O)O)CC[C@@]24C)C[C@]13CCC(=O)O
EC50 (Estrogen receptor [3]): 2.55 µM
EC50 (Estrogen receptor beta [4]): 4.68 µM

O=C(Cc1ccc(O)cc1)c1ccc(O)cc1O
EC50 (Estrogen receptor [1]): 2.03 µM
EC50 (Estrogen receptor beta [2]): 0.5 µM

C/C(=C/C(=O)C[C@@H](C)[C@]1(C)CC[C@@]2(C)C3=CCC4C(C)(C)C(=O)CC[C@]4(C)[C@@H]3CCC21)C(=O)O (stereo partly drawn)
EC50 (Estrogen receptor [3]): 8.32 µM
EC50 (Estrogen receptor beta [4]): 2.76 µM

CCOC(=O)c1ccc(O)cc1 [ETHYLPARABEN]
EC50 (Estrogen receptor [1]): 38.2 µM
Ratio EC50 (Homo sapiens): 20
EC50 (Estrogen receptor beta [2]): 1.86 µM

C=C(C)[C@@H]1[C@H](O)C[C@@H]2C(=CC[C@]3(C)[C@@H]([C@H](C)CC/C=C(\C)C(=O)OC)CC[C@@]23C)[C@@]1(C)CCC(=O)O
EC50 (Estrogen receptor beta [4]): 72.4 µM
Activity [5]: inactive

C=C(C)[C@@H]1[C@H](O)C[C@@H]2C(=CC[C@]3(C)[C@@H]([C@H](C)CC/C=C(\C)C(=O)O)CC[C@@]23C)[C@@]1(C)CCC(=O)O
EC50 (Estrogen receptor beta [4]): 25.3 µM
Activity [5]: inactive

C/C(=C/C(=O)C[C@@H](C)[C@]1(C)CC[C@@]2(C)C3=CCC4C(C)(C)[C@H](O)CC[C@]4(C)[C@@H]3CC=C21)C(=O)O (stereo partly drawn)
EC50 (Estrogen receptor [3]): 12.6 µM
EC50 (Estrogen receptor beta [4]): 17.7 µM

CC(C)(O)c1ccc2c(c1)C(=O)C[C@H]1[C@@](C)(C(=O)O)CCC[C@]21C
EC50 (Estrogen receptor [3]): 8.17 µM
EC50 (Estrogen receptor beta [4]): 4.28 µM

From ChEMBL document CHEMBL2380210, “Discovery of natural estrogen receptor modulators with structure-based virtual screening” (Bioorg Med Chem Lett, 2013)
